Data as given in patent US6803382B2, “Angiogenesis inhibitors and pharmaceutical and cosmetic use thereof” (Galderma Research & Development, S.N.C., priority 2001, dated 2004).
pIC50: −log10 of the molar value.

Legend:
[1] = target: T1, Human MetAP-2 (Homo sapiens, UniProt P50579); experiment: Inhibition of human MetAP-2 (recombinant enzyme, Met-Ala-Ser substrate); format: biochemical; conditions: recombinant MetAP-2, substrate Met-Ala-Ser 1 mM, 37° C., Hepes pH 7.4, 0.5 mM CoCl2
T1 construct: made in house
Procedure: By way of example, the biological activity of the compounds is evaluated by measuring their inhibitory activity on methionine aminopeptidase MetAP-2 (Li, X., Chang, Y-H. Biochem. Biophys. Res. Comm. 1996, 227, 152).
The biological activity is characterized in this system by determining the concentration of compound required to inhibit 50% of the enzymatic activity (IC50). The test protocol used is described in Example 13 of the present patent application.
a) Measurement of the Inhibition of Human MetAP-2
Recombinant MetAP-2 is obtained and purified according to the method described by Li and Chang (Li, X.; Chang, Y-H. Biochem. Biophys. Res. Comm. 1996, 227, 152).
The tests are carried out in buffer A (Hepes buffer, 10 mM, pH 7.4, 0.5 mM CoCl2 containing 10% glycerol) using the peptide Met-Ala-Ser as substrate (Km=0.7 mM).
a. The enzymatic activity is measured as follows: the substrate solution is added to a suitable amount of enzyme such that the final concentration is 1 mM, and the mixture is incubated at 37° C. for 10-30 minutes. The reaction is quenched by adding 100 mM EDTA solution or by heating in a boiling water bath for two minutes.
b. The N-terminal methionine released is quantified by measuring the absorbance at 450 nm (A450) by incubating for 30-60 minutes at 37° C. with the following coloured reagent: buffer B (Hepes buffer, 10 mM, pH 7.4) (Ben-Bassat A.; Bauer K.: Chang S. Y. et al., J. Bacteriol. 1987, 169, 751-757), containing 70 μg/mL of amino acid oxidase, 10 μg/mL of horseradish peroxidase and 1 mM of o-dianisidine. The activities are expressed as mmol of methionine produced, using the conversion factor of 1 mmol of methionine/mL=8.6A450
Determination of the IC50
The IC50 values are determined by incubating the enzyme and its substrate (using the experimental conditions described above) with increasing concentrations of inhibitor.
The control is 5-methoxy-4-[2-methyl-3-(3-methylbut-2-enyl)oxiranyl]-1-oxaspiro[2.5]octan-6-yl 4-methoxycinnamate described in the publication by Han et al., Bioorganic & Medicinal Chemistry Letters, 2000, 10, 39-43.

[2] = system: Endothelial Cells Isolated from the Vein of Umbilical Cords; experiment: Inhibition of endothelial cell proliferation by DNA synthesis reinitiation (b-Fgf, tritiated thymidine); format: cell-based; conditions: b-Fgf-stimulated tritiated thymidine incorporation, 24 h at 37° C., serum free medium, IC50 determined graphically
Procedure: The anti-angiogenic activity of the compounds according to the invention may also be measured by means of their capacity to inhibit the proliferation of endothelial cells. This activity is determined in Example 13 of the present patent application.
b) Measurement of the Inhibition of the Proliferation in Endothelial Cells Isolated from the Vein of Umbilical Cords (Prepared at the Laboratory) by DNA Synthesis Reinitiation
The cells are seeded in complemented SFM medium (Gibco). When the cells reach the confluence, the growth is stopped by 2 washes in serum free medium and handing-over in serum free medium for 24 h. After trypsination, they are seeded in 48 wells plates: 50.000 cells per well in 500 μl.
The reinitiation of DNA synthesis is performed 6 hours after, in presence of 50 μg/ml b-Fgf by well with increasing amounts of inhibitor to be tested in the serum free medium and containing the tritiated thymidine (b-Fgf is prepared at the laboratory).
The cells are incubated 24 h at 37° C. and the radioactivity is measured with a Wallac counter. Each test is performed in duplicate and the result is the average of the counted number of cpms. The curve showing measured radioactivity function to increasing amount of inhibitors allows to determine graphically the value of IC50.

T1 sequence (P50579 whole entry): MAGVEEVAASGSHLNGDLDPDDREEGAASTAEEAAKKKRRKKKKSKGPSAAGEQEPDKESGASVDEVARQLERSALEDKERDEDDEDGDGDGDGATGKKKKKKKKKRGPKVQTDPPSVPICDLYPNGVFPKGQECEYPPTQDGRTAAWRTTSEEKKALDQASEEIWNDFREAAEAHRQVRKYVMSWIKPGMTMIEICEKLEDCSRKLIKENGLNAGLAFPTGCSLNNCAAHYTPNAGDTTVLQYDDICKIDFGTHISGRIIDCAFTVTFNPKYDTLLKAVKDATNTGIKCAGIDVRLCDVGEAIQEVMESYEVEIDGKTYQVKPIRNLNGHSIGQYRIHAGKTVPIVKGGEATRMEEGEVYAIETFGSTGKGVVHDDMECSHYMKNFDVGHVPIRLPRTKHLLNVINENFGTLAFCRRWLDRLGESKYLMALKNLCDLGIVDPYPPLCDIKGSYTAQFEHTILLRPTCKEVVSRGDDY

Structure (SMILES): COc1ccc(C=CC(=O)OC2CCC3(CO3)C(C3(C)OC3CC=C(C)C)C2OC)cc1 (centres unmarked) [Control, 5-methoxy-4-[2-methyl-3-(3-methylbut-2-enyl)oxiranyl]-1-oxaspiro[2.5]octan-6-yl 4-methoxycinnamate]
- pIC50 [1]: 7.46
- pIC50 [2]: 8.00

Structure (SMILES): COc1ccc(/C=C/C(=O)O[C@@H]2CC[C@]3(CO3)[C@@H](/C(C)=C/CCC(C)C)[C@@H]2OC)cc1 [Example 2]
- pIC50 [1]: 7.82
- pIC50 ([2]; Endothelial cell): 9.00

Structure (SMILES): CO[C@@H]1[C@H](OC(=O)/C=C/C=C/C=C/C=C/C(=O)O)CC[C@]2(CO2)[C@H]1[C@@]1(C)O[C@@H]1CC=C(C)C [Fumagillin]
- pIC50 [1]: 8.00
